Measured values taken from article PMC5007854, “β-Nitrostyrenes as Potential Anti-leishmanial Agents” (Frontiers in Microbiology, 2016).
Converted amounts (≈) assume the structure as drawn. Read-outs that look alike come from different tables or passages of the source.

Legend:
Type in all cases: cell-based
[1] = tested on: Escherichia coli ATCC 25922; test: Broth microdilution antibacterial susceptibility (MIC/MBC); conditions: Escherichia coli; for MIC: broth microdilution, 35°C, 24 h, read-out: MIC, Ec ATCC 25922; for MBC: ≥99.9% reduction of original inoculum, read-out: MBC, Ec ATCC 25922
Excerpt: (§1) One reference each of the following species was used for their in vitro susceptibility to β-nitrostyrene in this study: Staphylococcus aureus ATCC 29213, Staphylococcus epidermidis ATCC 14990, Escherichia coli ATCC 25922, Pseudomonas aeruginosa ATCC 27853, Candida albicans ATCC 90028, Candida glabrata ATCC 90030, Aspergillus fumigatus ATCC 16424 and Aspergillus niger ATCC 16404. These strains were procured from the American Type Culture Collection (ATCC, Manassas, VA, USA).
(§2) The antibacterial and antifungal activities of the β-nitrostyrenes were performed by broth microdilution methods as per the guidelines of Clinical and Laboratory Standard Institute (Wayne, [1998], [2008a],[b],[c]) by using Mueller-Hinton broth (MHB; Becton-Dickinson, Cockeysville, MD, USA) supplemented with calcium (25 mg/L) and magnesium (12.5 mg/L) for bacterial strains while as RPMI 1640 medium with L-glutamine and without sodium bicarbonate, buffered to pH 7.0 with 0.165 M 3-(N-morpholino) propanesulfonic acid (MOPS; both from Sigma) was used for fungal strains. Stock solutions were prepared in 100% dimethyl sulfoxide (DMSO; Sigma; distilled water was used for ciprofloxacin), with a final DMSO concentration of 1% (vol. per vol.) and two-fold serial dilutions were prepared in media in amounts of 100 μL per well in 96-well U-bottom microtiter plates (Tarsons, Kolkata, India) to yield twice the final concentration required for testing, which ranged from 64 to 0.12 μg/mL for β-nitrostyrenes and 16 to 0.03 μg/mL for ciprofloxacin as well as amphotericin B. Stock inoculum suspensions of the bacteria, Candida species and Aspergillus species were prepared in sterile normal saline (0.85%) containing 0.05% polysorbate 20 (NST) from overnight (3 to 5-day old for Aspergillus species) strains grown on Trypticase soy agar (TSA; Becton-Dickinson) and potato dextrose agar (Difco Laboratories, Detroit, MI, USA) respectively at 35°C. Inocula were verified for each assay by plating onto agar plates for colony enumeration. These suspensions were further diluted in the respective test medium and a 100 μl volume of this diluted inoculum was added to each well of the plate, resulting in a final inoculum concentration of approximately 5 × 10^5 CFU/mL for bacter1ia, (Wayne, [2008a]) approximately 2.5 × 10^4 CFU/ml for Candida species (Pfaller et al., [2004]) while as 0.4 × 10^4 to 5 × 10^4 CFU/mL for Aspergillus species (Wayne, [2008c]). Untreated growth control, vehicle control (DMSO) and sterility control wells were included for each isolate tested. Ciprofloxacin and amphotericin B served as the standard drug controls for bacterial and fungal strains, respectively. The microtiter plates were incubated at 35°C for 24 h for bacterial strains and 48 h for fungal strains. The plates were read visually and the minimum inhibitory concentration (MIC) was defined as the lowest concentration of test sample that prevented visible growth with respect to the growth control.
(§3) The minimum bactericidal concentration (MBC) and minimum fungicidal concentration (MFC) were determined by plating 100 μl volumes on agar plates from the wells showing no visible growth (clear MIC well). The plates were incubated as described above in MIC measurements. […] All experiments were conducted twice in duplicates on separate occasions with freshly prepared inoculums and stock solutions.

[2] = tested on: Staphylococcus aureus ATCC 29213; test: as above; conditions: for MIC / MBC: Staphylococcus aureus; for MIC: read-out: MIC, Sa ATCC 29213; for MBC: ≥99.9% reduction of original inoculum, read-out: MBC, Sa ATCC 29213
Excerpt: as §1, §2, §3

[3] = tested on: Staphylococcus epidermidis ATCC 14990; test: as above; conditions: for MIC / MBC: Staphylococcus epidermidis; for MIC: read-out: MIC, Se ATCC 14990; for MBC: ≥99.9% reduction of original inoculum, read-out: MBC, Se ATCC 14990
Excerpt: as §1, §2, §3

[4] = tested on: Pseudomonas aeruginosa ATCC 27853; test: as above; conditions: Pseudomonas aeruginosa; for MIC: broth microdilution, 35°C, 24 h, read-out: MIC, Pa ATCC 27853; for MBC: ≥99.9% reduction of original inoculum, read-out: MBC, Pa ATCC 27853
Excerpt: as §1, §2, §3

[5] = tested on: Aspergillus fumigatus ATCC 16424; test: Broth microdilution antifungal susceptibility (MIC/MFC); conditions: Aspergillus fumigatus; for MIC: broth microdilution, 35°C, 48 h, read-out: MIC, Af ATCC 16424; for MFC: ≥99.9% reduction of original inoculum, read-out: MFC, Af ATCC 16424
Excerpt: as §1, §2, §3

[6] = tested on: Aspergillus niger ATCC 16404; test: as above; conditions: Aspergillus niger; for MIC: broth microdilution, 35°C, 48 h, read-out: MIC, An ATCC 16404; for MFC: ≥99.9% reduction of original inoculum, read-out: MFC, An ATCC 16404
Excerpt: as §1, §2, §3

[7] = tested on: Candida glabrata ATCC 90030; test: as above; conditions: Nakaseomyces glabratus; for MIC: broth microdilution, 35°C, 48 h, read-out: MIC, Cg ATCC 90030; for MFC: ≥99.9% reduction of original inoculum, read-out: MFC, Cg ATCC 90030
Excerpt: as §1, §2, §3

[8] = tested on: Candida albicans ATCC 90028; test: as above; conditions: Candida albicans; for MIC: broth microdilution, 35°C, 48 h, read-out: MIC, Ca ATCC 90028; for MFC: ≥99.9% reduction of original inoculum, read-out: MFC, Ca ATCC 90028
Excerpt: as §1, §2, §3

[9] = ATCC29213, 24 h, broth microdilution, 35°C, 24 h
[10] = ATCC14990, 24 h, broth microdilution, 35°C, 24 h
[11] = broth microdilution, 35°C, 24 h

SMILES | MIC ([1]; ATCC25922, 24 h) [µg/mL] | MBC ([1]; ATCC25922) [µg/mL] | MIC [2, 9] [µg/mL] | MBC ([2]; ATCC29213) [µg/mL] | MIC [3, 10] [µg/mL] | MBC ([3]; ATCC14990) [µg/mL] | MIC ([4]; ATCC27853, 24 h) [µg/mL] | MBC ([4]; ATCC27853) [µg/mL] | MIC ([5]; ATCC16424, 48 h) [µg/mL] | MFC ([5]; ATCC16424) [µg/mL] | MIC ([6]; ATCC16404, 48 h) [µg/mL] | MFC ([6]; ATCC16404) [µg/mL] | MIC ([7]; ATCC90030, 48 h) [µg/mL] | MFC ([7]; ATCC90030) [µg/mL] | MIC ([8]; ATCC90028, 48 h) [µg/mL] | MFC ([8]; ATCC90028) [µg/mL] | further results
O=C(O)c1cn(C2CC2)c2cc(N3CCNCC3)c(F)cc2c1=O [Cipro, Ciprofloxacin, reference compound] | < 0.03 | < 0.03 | 0.25 (≈ 0.754 µM) | 0.5 (≈ 1.51 µM) | 0.25 (≈ 0.754 µM) | 0.25 (≈ 0.754 µM) | 0.25 (≈ 0.754 µM) | 1 (≈ 3.02 µM) | – | – | – | – | – | – | – | – | –
O=[N+]([O-])/C=C/c1ccc(Cl)cc1 [Compound 1, 1-chloro-4-((E)-2-nitrovinyl) benzene] | 32 (≈ 174 µM) | 32 (≈ 174 µM) | 32 (≈ 174 µM) | 32 (≈ 174 µM) | 16 (≈ 87.1 µM) | 16 (≈ 87.1 µM) | 32 (≈ 174 µM) | 64 (≈ 349 µM) | 8 (≈ 43.6 µM) | 8 (≈ 43.6 µM) | 4 (≈ 21.8 µM) | 4 (≈ 21.8 µM) | 4 (≈ 21.8 µM) | 4 (≈ 21.8 µM) | 32 (≈ 174 µM) | 32 (≈ 174 µM) | –
C/C(=C\c1ccc(Cl)cc1)[N+](=O)[O-] [Compound 2, 1-chloro-4-((E)-2-nitroprop-1-enyl) benzene] | – | > 64 | – | > 64 | – | 32 (≈ 162 µM) | – | > 64 | – | > 64 | – | > 64 | – | 32 (≈ 162 µM) | – | > 64 | MIC ([1]; ATCC25922): > 64 µg/mL; MIC ([2]; ATCC29213, broth microdilution, 35°C, 24 h): > 64 µg/mL; MIC ([3]; ATCC14990, broth microdilution, 35°C, 24 h): 32 µg/mL (≈ 162 µM); MIC ([4]; ATCC27853): > 64 µg/mL; MIC ([5]; ATCC16424): > 64 µg/mL; MIC ([6]; ATCC16404): 64 µg/mL (≈ 324 µM); MIC ([7]; ATCC90030): 32 µg/mL (≈ 162 µM); MIC ([8]; ATCC90028): > 64 µg/mL
CC/C(=C\c1ccc(Cl)cc1)[N+](=O)[O-] [Compound 3, 1-chloro-4-((E)-2-nitrobut-1-enyl) benzene] | – | > 64 | 2 to 32 (≈ 9.45 to 151 µM) | 4 (≈ 18.9 µM) | 2 to 16 (≈ 9.45 to 75.6 µM) | 2 (≈ 9.45 µM) | – | > 64 | – | 64 (≈ 302 µM) | – | 32 (≈ 151 µM) | – | > 64 | – | > 64 | MIC, Sa ATCC 29213 [2, 11]: 4 µg/mL (≈ 18.9 µM); MIC, Se ATCC 14990 [3, 11]: 2 µg/mL (≈ 9.45 µM)
CN(C)c1ccc(/C=C/[N+](=O)[O-])cc1 [Compound 4, N,N-dimethyl-4-((E)-2-nitrovinyl) benzenamine] | > 64 | > 64 | > 64 | > 64 | > 64 | > 64 | > 64 | > 64 | 64 (≈ 333 µM) | > 64 | 64 (≈ 333 µM) | > 64 | 32 (≈ 166 µM) | 32 (≈ 166 µM) | > 64 | > 64 | –
C/C(=C\c1ccc(N(C)C)cc1)[N+](=O)[O-] [Compound 5, N,N-dimethyl-4-((E)-2-nitroprop-1-enyl) benzenamine] | > 64 | > 64 | > 64 | > 64 | > 64 | > 64 | > 64 | > 64 | > 64 | > 64 | 64 (≈ 310 µM) | > 64 | 32 (≈ 155 µM) | 32 (≈ 155 µM) | > 64 | > 64 | –
CC/C(=C\c1ccc(N(C)C)cc1)[N+](=O)[O-] [Compound 6, N,N-dimethyl-4-((E)-2-nitrobut-1-enyl) benzenamine] | > 64 | > 64 | > 64 | > 64 | > 64 | > 64 | > 64 | > 64 | > 64 | > 64 | 64 (≈ 291 µM) | > 64 | 32 (≈ 145 µM) | 32 (≈ 145 µM) | > 64 | > 64 | –
COc1ccc(/C=C/[N+](=O)[O-])cc1 [Compound 13, 1-methoxy-4-((E)-2-nitrovinyl) benzene] | > 64 | > 64 | 64 (≈ 357 µM) | 64 (≈ 357 µM) | 32 (≈ 179 µM) | 32 (≈ 179 µM) | > 64 | > 64 | 64 (≈ 357 µM) | > 64 | 64 (≈ 357 µM) | 64 (≈ 357 µM) | 32 (≈ 179 µM) | 32 (≈ 179 µM) | 64 (≈ 357 µM) | 64 (≈ 357 µM) | –
